Measurements from publication PMC12428582, “2-Styrylquinolines with Push-Pull Architectures as Sensors for β-Amyloid Aggregation with Theranostic Properties” (International Journal of Molecular Sciences, 2025).
Read-outs that look alike come from different tables or passages of the source. Blank lines part the entries; values can stand above or below the molecule they belong to.

Columns and labels:
[1] = target: T1, fibrils of β-amyloid peptide (human Aβ1–42) (Homo sapiens, UniProt P05067); assay: Fluorescence titration of sensors with β-amyloid fibrils (Kd by non-linear fitting); format: binding; conditions: for Kd: fibrils of β-amyloid peptide, sensor 1.0 × 10^−6 M, protein 0 to 2.0 × 10^−6 M, ICT band excitation/emission maxima, read-out: Binding constants values (Kd) and standard deviations
T1 construct: amyloid β protein fragment 1–42 (MW = 4514.04); purchased Merck-Sigma-Aldrich
T1 sequence (P05067 672-713 limits assumed): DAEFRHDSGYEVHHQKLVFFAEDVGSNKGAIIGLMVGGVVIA
Protocol: Amyloid fibrils from human Aβ1–42 peptide were prepared using a procedure that combines several protocols described in the literature. A 2.2 × 10^−4 M solution of commercially available Aβ1–42 peptide was prepared in a small volume of 100 mM sodium phosphate buffer (pH = 7.04) containing EDTA in concentration 10 mM. This solution was incubated at 37 °C during 72 h in a dry bath supported on an orbital shaker working at 200 rpm. […] Subsequently, 10 μL of the freshly prepared amyloid beta fibrils (c = 1.0 × 10^−4 M) were added to each of the solutions containing the sensors. After a stabilization period of 10 min after each fibril addition at 37 °C, and then equilibration time of 5 min at room temperature, fluorescence emission spectra were recorded for each sensor at their excitation maxima.

[2] = target: T2, amyloid-beta plaques (Homo sapiens, UniProt P05067); assay: Ex vivo staining of somatosensory cortex of APP/PS1 transgenic mice (confocal microscopy); conditions: plaques most distinctly labeled at 458 nm excitation, also 488 and 555 nm, none at 594 or 405 nm
T2 sequence (P05067 672-711 limits assumed): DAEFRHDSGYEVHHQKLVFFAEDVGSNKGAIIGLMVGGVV
Text: Compound 6b was chosen for an initial labeling study by assessing its binding properties in the somatosensory cortex of APP/PS1 transgenic mice, a model of Alzheimer’s disease that develops amyloid-beta deposits in the brain from 6 to 7 months of age. […] Amyloid-beta plaques were most distinctly labeled at an excitation wavelength of 458 nm, with effective staining also being observed at 488 nm and 555 nm (Figure 8A–D). In contrast, no staining was detected when exciting at 594 nm or 405 nm (Figure 8E,F).
The free-floating sections were rinsed in 0.1 M phosphate buffer (PB) and incubated for 2 h at room temperature with a 20 μM solution of each compound 6, prepared by diluting a 1.0 × 10^−4 M stock solution in DMSO with phosphate buffer. After incubation, the sections were rinsed again in 0.1 M phosphate buffer, mounted using ProLong Gold Antifade Reagent (Invitrogen Corporation, Carlsbad, CA, USA), and stored at −20 °C.
(§1) Image acquisition was performed with a Zeiss LSM 710 confocal laser scanning system (Carl Zeiss Microscopy GmbH, Jena, Germany). They were recorded at 0.5 μm intervals (63 × objective) through separate channels, and ZEN 2012 software (Zeiss) was then used to construct composite images from each optical series by combining the images recorded through the different channels (image resolution 1024 × 1024 pixels; pixel size 188 nm). […]

[3] = target: T2, amyloid-beta plaques; assay: Ex vivo staining of temporal neocortex of an Alzheimer's disease patient, amyloid-beta antibody co-labelling; conditions: temporal neocortex of an AD patient; 20 μM compound, 2 h
Protocol: (§2) AD human tissue samples were analyzed within the context of a previous study that utilized fixed coronal sections to investigate the progression of Alzheimer’s disease. Brain tissue samples from AD patients were obtained from the Banco de Tejidos Fundación CIEN (Dr. A. Rábano, Área de Neuropatología, Centro Alzheimer, Fundación Reina Sofía, Madrid, Spain). Immediately after removal, the brains were fixed in cold 4% paraformaldehyde in 0.1 M phosphate buffer (pH 7.4). After 2 h, the tissue was sectioned into small blocks and post-fixed in the same medium at 4 °C for 24–48 h. Serial coronal sections (50 μm thick) were prepared using a vibratome (St. Louis, MO, USA), cryoprotected in a 30% sucrose solution in 0.1 M phosphate buffer and stored in an ethylene glycol/glycerol solution at −20 °C until use. […]
as §1

[4] = target: T3, neurofibrillary tangles (phosphorylated tau) (Homo sapiens, UniProt P10636); assay: Ex vivo staining of temporal neocortex of an Alzheimer's disease patient, AT8 antibody co-labelling; conditions: temporal neocortex of an AD patient; AT8 antibody detects phosphorylated tau
T3 sequence (P10636 623-758 limits assumed): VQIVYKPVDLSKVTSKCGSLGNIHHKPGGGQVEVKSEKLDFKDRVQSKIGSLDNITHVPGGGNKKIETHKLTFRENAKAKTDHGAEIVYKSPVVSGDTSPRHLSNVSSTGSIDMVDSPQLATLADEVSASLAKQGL
Protocol: as §2, §1

[5] = tested on: caspase-3 activity in HEK293-Tau3R cells; assay: Caspase-3 activity in cells treated with okadaic acid (Ac-DEVD-AMC substrate); format: cell-based, human; conditions: for Caspase-3 activation induced by okadaic acid: 25 nM okadaic acid with compound at 10 or 100 nM; for Decrease of caspase-3 activity compared to cells treated with okadaic acid alone: 100 nM compound, 25 nM okadaic acid, p < 0.05
Protocol: HEK293-Tau3R cells in logarithmic growth phase were digested with trypsin at a concentration of 0.25% and then resuspended in the medium and subcultured in Petri dishes (100 × 15 mm) at a seeding density of 1.5 × 10^5 cells/mL. […] Upon completion of the treatment, cells were collected, washed twice with PBS (pH 7.4) and pelleted by centrifugation at 1000× g for 5 min. The pellet was then resuspended in PBS and centrifuged again at 1000× g for 10 min at 4 °C to remove the supernatant. The resulting cell pellets were lysed in a buffer containing 10 mM Tris–HCl (pH 7.5) with 0.5% CHAPS, 1 mM MgCl2, 1 mM EGTA, 1 mM EDTA, 10% glycerol, 5 mM β-mercaptoethanol, 1 mM DTT, 1 mM phenylmethylsulfonyl fluoride (PMSF), 100 μM leupeptin and 1 μM pepstatin. Following a 30 min incubation on ice, the lysates were clarified by centrifugation at 13,000× g for 5 min. Protein concentrations in the supernatants were determined using the bicinchoninic acid (BCA) assay.
The caspase 3 activity assay performed using the known fluorogenic substrate Ac-DEVD-AMC. HEK293-Tau3R cells were harvested, washed with ice-cold PBS and lysed in 100 μL of lysis buffer containing 50 mM HEPES (pH 7.4), 100 mM NaCl, 0.1% CHAPS, 10% glycerol, 10 mM DTT, 0.1 mM EDTA and protease inhibitors (1 μg/μL each of leupeptin, pepstatin and aprotinin). The lysates were, sonicated and centrifuged at 14,000× g for 15 min at 4 °C. For the assay, 20 μg of cellular protein from the lysates were incubated with 20 µM caspase 3 substrate in assay buffer (50 mM HEPES, pH 7.4, 100 mM NaCl, 0.1% CHAPS, 10% glycerol, 10 mM DTT) for 2 h at 37 °C. Substrate cleavage was monitored using a microplate fluorescence reader with excitation at 360 nm and emission at 460 nm. Caspase activity was determined based on the cleavage of the fluorogenic substrate and is expressed as fluorescence arbitrary units.

[6] = target: T4, Aβ1–42 peptide (Homo sapiens, UniProt P05067); assay: Aβ1–42 aggregation inhibition, Thioflavin T fluorescence; format: biochemical; conditions: 0.5 μM compound; Figure 11
T4 construct: amyloid β protein fragment 1–42 (MW = 4514.04); purchased Merck-Sigma-Aldrich
T4 sequence (P05067 672-713 limits assumed): as the sequence (P05067 672-713 limits assumed) above
Protocol: A 0.5 mg/mL solution of Aβ1–42 peptide in 10% aqueous ammonium hydroxide was sonicated for 30 min to achieve monomerization. Solvent evaporation in a SpeedVac afforded a thin film that was dissolved in 60 mM NaOH, adjusting its concentration to 20 μM, as a stock solution. For aggregation inhibition experiments, 2 μM Aβ1–42 peptide was mixed with the styrylquinolines 6 and incubated for 4 days at 37 °C. The degree of Aβ aggregation was determined using Thioflavin-T fluorescence analysis.
All assays were done on flat black 96-well plates. […] Peptide Aβ1–42 alone in buffer reaction served as a control for the screen. Fluorescence values were measured at 37 °C in replicates using a microplate reader, with the measurement taken at 24 h intervals for 72 h. […] All assays were performed at least twice to ensure reproducibility.

[7] = target: T5, AcPHF6 (Ac-VQIVYK-NH2) tau-hexapeptide (Homo sapiens, UniProt P10636); assay: AcPHF6 aggregation inhibition, Thioflavin T fluorescence; format: biochemical; conditions: 1 μM, non-toxic concentration; Figure 12
T5 construct: purchased Bachem (Bubendorf BL, Switzerland)
Protocol: This in vitro assay was performed using the N-acetylated and C-amidated hexapeptide AcPHF6 (Ac-VQIVYK-NH2), derived from the ^306VQIVYK^311 sequence found in the native […]. This region of the tau protein is involved in fibril aggregation processes and is commonly used as a model for screening tau aggregation inhibitors.
In brief, AcPHF6 peptide was dissolved in 50 mM phosphate buffer (pH 7.4) at a concentration of 1 mM and vortexed to obtain a homogeneous solution. For aggregation inhibition experiments, 100 μM AcPHF6 peptide was mixed with compounds 6 and incubated at 37 °C for 4 days. The degree of AcPHF6 aggregation was determined using Thioflavin-T fluorescence analyses.
Briefly, the screen of the styrylquinolines was performed based on Thioflavin T fluorescence. All assays were done on flat black 96-well plates. […] Immediately before the experiment, 1 μM heparin was added to initiate AcPHF6 aggregation. AcPHF6 alone in buffer reaction served as a control for the screen. Fluorescence values were taken at 24 h intervals for 72 h, at 37 °C and in replicates, using a microplate reader. […] All assays were performed at least twice to ensure reproducibility.

[8] = tested on: Aβ42; parameters: method as in PMID 24900645; conditions: ThT-based fluorometric assay; cited from earlier work
[9] = target: β-amyloid protein; conditions: read-out: ThT-β-amyloid protein dissociation constant Kd, cited from earlier work
[10] = tested on: HEK293-Tau3R cells; assay: Cell viability, MTT assay; format: cell-based, human; conditions: 10 to 50 nM for 24 h
Protocol: Cells were cultured in DMEM medium supplemented with 10% fetal bovine serum, 1 mM pyruvate, 2 mM glutamine and 0.2 mg/mL of the antibiotic zeocin. Cultures were maintained at 37 °C in a humidified atmosphere containing 5% CO2.
HEK293-Tau3R cells were seeded into 96-well polystyrene plates at a density of 20,000 cells per well and incubated at 37 °C for 24 h to allow cell adhesion. […] Cell viability was assessed by measuring metabolic activity through the reduction of MTT (3-(4,5-dimethylthiazol-2-yl)-2,5-diphenyltetrazolium bromide) to insoluble formazan. Absorbance values were measured at 550 nm using a microplate reader.

[11] = target: T3, neurofibrillary tangles (phosphorylated tau); parameters: method as in PMID 16914838; conditions: brain samples from AD patients; cited from earlier work

Kd [1]: 2.43 ± 0.32 µM
Molecule: CN(C)c1ccc(/C=C/c2ccc3cc(C=C(C#N)C#N)ccc3n2)cc1 [6a, (E)-2-((2-(4-(Dimethylamino)styryl)quinolin-6-yl)methylene)malononitrile]

Molecule: CCN(CC)c1ccc(/C=C/c2ccc3cc(C=C(C#N)C#N)ccc3n2)cc1 [6b, (E)-2-((2-(4-(Diethylamino)styryl)quinolin-6-yl)methylene)malononitrile]
Kd [1]: 7.93 ± 0.63 µM | Labeling of amyloid-beta deposits [2]: specific binding to β-sheet amyloid structures | Labeling of amyloid-beta plaques [3]: specifically labeled amyloid-beta plaques | Labeling of neurofibrillary tangles [4]: did not label neurofibrillary tangles | Caspase-3 activation induced by okadaic acid [5]: significantly reduced

Kd [1]: 8.19 ± 0.61 µM | Labeling of neurofibrillary tangles [4]: did not label neurofibrillary tangles
Molecule: N#CC(C#N)=Cc1ccc2nc(/C=C/c3ccc(N4CCCCC4)cc3)ccc2c1 [6c, (E)-2-((2-(4-(Piperidin-1-yl)styryl)quinolin-6-yl)methylene)malononitrile]
Labeling of amyloid-beta plaques [3]: specifically labeled amyloid-beta plaques

Molecule: N#CC(C#N)=Cc1ccc2nc(/C=C/c3ccc(N4CCOCC4)cc3)ccc2c1 [6d, (E)-2-((2-(4-Morpholinostyryl)quinolin-6-yl)methylene)malononitrile]
Kd [1]: 6.6 ± 0.79 µM | Caspase-3 activation induced by okadaic acid [5]: significantly reduced

Molecule: CC(=O)OCCN(CCOC(C)=O)c1ccc(/C=C/c2ccc3cc(C=C(C#N)C#N)ccc3n2)cc1 [6e, (E)-((4-(2-(6-(2,2-Dicyanovinyl)quinolin-2-yl)vinyl)phenyl)azanediyl)bis(ethane-2,1-diyl) diacetate]
Kd [1]: 10.2 ± 1.53 µM | Aβ1–42 aggregation inhibition, ranking [6]: most active compound | AcPHF6 aggregation inhibition, ranking [7]: best result | Caspase-3 activation induced by okadaic acid [5]: significantly reduced | Decrease of caspase-3 activity compared to cells treated with okadaic acid alone [5]: very similar results

Molecule: Cc1ccc2nc(/C=C/c3ccc(N)cc3)ccc2c1 [A]
Inhibition of Aβ42 aggregation [8]: moderate fibrillization inhibitor and amyloid binder

Molecule: Cc1ccc2c(c1)sc(-c1ccc(N(C)C)cc1)[n+]2C [ThT, Thioflavin T]
Kd ([9]; ref 57): 0.8 µM | Kd ([9]; ref 58): 2.56 µM | Kd ([9]; ref 59): 30.4 µM | Kd ([9]; ref 60): 46 µM

Molecule: C=C1[C@@H](O)[C@@H]2O[C@]3(CC[C@H](/C=C/[C@@H](C)[C@@H]4CC(C)=C[C@@]5(O[C@H](C[C@@](C)(O)C(=O)O)CC[C@H]5O)O4)O3)CC[C@H]2O[C@@H]1[C@@H](O)C[C@H](C)[C@H]1O[C@@]2(CCCCO2)CC[C@H]1C [okadaic acid, reference compound]
Concentrations at which a marked decline in cell viability was observed [10]: above 30 nM | Concentration from which caspase 3 activity began to rise ([5]; okadaic acid 10–50 nM): ≥ 25 nM

Molecule: (E)-2-((2-(2-(4-(Dimethylamino)naphthalen-1-yl)vinyl)quinolin-6-yl)-methylene)malononitrile [6g]
Enhancement of fluorescence emission in the presence of beta-amyloid protein fibrils ([1]; excitation wavelength characteristic of each compound, Figure 6): greater difficulty in binding to the beta sheet structure of the protein | Caspase-3 activation induced by okadaic acid [5]: significantly reduced | Decrease of caspase-3 activity compared to cells treated with okadaic acid alone [5]: more than 50%

Molecule: Thioflavin S
Binding to beta-sheet structures and phosphorylated tau [11]: bind both beta-sheet structures and phosphorylated tau
